The molecules below were run against T1, human mineralocorticoid Receptor-α (MRα) (Homo sapiens, UniProt P08235) (assay: Mineralocorticoid binding assay ([3H]aldosterone displacement, MR lysate)).
T1 construct: made in house; host or cells: Sf21 insect cells (baculovirus), as described for GR
T1 sequence (P08235 1-984): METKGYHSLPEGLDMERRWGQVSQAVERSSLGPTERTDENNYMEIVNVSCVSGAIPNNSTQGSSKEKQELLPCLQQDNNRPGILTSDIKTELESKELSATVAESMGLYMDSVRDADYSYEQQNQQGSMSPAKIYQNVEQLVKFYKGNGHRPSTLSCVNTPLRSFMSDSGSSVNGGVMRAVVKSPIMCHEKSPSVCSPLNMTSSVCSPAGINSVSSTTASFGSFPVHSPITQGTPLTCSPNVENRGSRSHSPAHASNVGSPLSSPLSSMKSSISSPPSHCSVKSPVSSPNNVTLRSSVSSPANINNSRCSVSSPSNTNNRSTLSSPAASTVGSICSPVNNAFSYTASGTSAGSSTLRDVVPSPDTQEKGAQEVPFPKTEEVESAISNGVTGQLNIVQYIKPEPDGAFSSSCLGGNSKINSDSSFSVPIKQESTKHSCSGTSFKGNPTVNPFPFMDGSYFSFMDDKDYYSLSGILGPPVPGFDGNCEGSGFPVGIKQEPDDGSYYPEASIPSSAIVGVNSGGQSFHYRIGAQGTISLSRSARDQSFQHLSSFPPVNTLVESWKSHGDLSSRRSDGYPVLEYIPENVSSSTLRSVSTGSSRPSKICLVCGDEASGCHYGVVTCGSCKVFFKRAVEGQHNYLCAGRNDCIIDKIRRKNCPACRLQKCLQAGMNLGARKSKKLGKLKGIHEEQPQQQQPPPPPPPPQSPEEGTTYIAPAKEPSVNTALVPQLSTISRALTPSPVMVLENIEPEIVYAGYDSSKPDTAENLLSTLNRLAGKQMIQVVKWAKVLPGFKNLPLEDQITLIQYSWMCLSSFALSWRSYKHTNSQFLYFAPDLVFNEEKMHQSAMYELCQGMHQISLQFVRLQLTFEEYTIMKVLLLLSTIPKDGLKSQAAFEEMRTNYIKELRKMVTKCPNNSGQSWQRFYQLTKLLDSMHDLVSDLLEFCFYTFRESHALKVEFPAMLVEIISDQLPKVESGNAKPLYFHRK
Procedure: Human mineralocorticoid receptor protein was prepared from a baculovirus expression plasmid comprising cDNA encoding human mineralocorticoid Receptor-α (MRα), as described for GR (Example 158).
Binding assay samples were prepared in separate mini-tubes in a 96-well format at 4° C. Each binding assay sample was prepared in a volume of 250 μl of MR-Assay Buffer (10% glycerol, 10 mM sodium phosphate, 10 mM potassium fluoride, 20 mM sodium molybdate, 0.25 mM CHAPS, 2 mM DTT, (adjusted to pH 7.35)) containing 5-10 μg of MR lysate; 2-4 nM of [^3H]aldosterone; unlabeled aldosterone; and a test compound. Each test compound was assayed at several different concentrations, ranging from 0 to 10^−5 M and each was tested in the presence and in the absence of several different concentrations of unlabeled aldosterone. Each concentration of each test compound was assayed in triplicate. The assay samples were incubated for 16 hours at 4° C.
After incubation, protein was precipitated with hydroxylapatite, collected, and counted as described in Example 158 for GR. Specific binding for a particular sample was calculated using the same equation as was used for GR: (Sample CPM)−(Average Non-specific CPM) Average Non-specific CPM was defined as the amount of radioactivity from samples comprising an excess (i.e. 1000 nM) of unlabeled aldosterone. […] Ki values were determined using the Cheng-Prusoff equation using a previously determined Kd value for aldosterone: Ki=IC50/(1+[L]/Kd) [L]=concentration of labeled aldosterone Kd=dissociation constant of labeled aldosterone

Row | SMILES | Ki
1 | Cc1cc(-c2csc(C#N)c2)c(Cl)c2c1NC(C)(C)CC2C (racemic) [Compound 244, (±)-5-Chloro-6-(5-cyanothiophen-3-yl)-1,2,3,4-tetrahydro-2,2,4,8-tetramethylquinoline] | 6 nM
2 | CC(=O)Oc1c(-c2cccc(C#N)c2)cc(C)c2c1C(C)CC(C)(C)N2 (racemic) [Compound 245, (±)-5-Acetoxy-6-(3-cyanophenyl)-1,2,3,4-tetrahydro-2,2,4,8-tetramethylquinoline] | 47 nM
3 | Cc1cc(-c2cncnc2)c(Cl)c2c1NC(C)(C)CC2C (racemic) [Compound 256, (±)-5-Chloro-1,2,3,4-tetrahydro-2,2,4,8-tetramethyl-6-(pyrimidin-5-yl)quinoline] | 60 nM
4 | CC1=CC(C)(C)Nc2ccc(-c3cccc(C(F)(F)F)c3)c(Cl)c21 [Compound 230, 5-Chloro-1,2-dihydro-2,2,4-trimethyl-6-[3-(trifluoromethyl)phenyl]quinoline] | 12 nM
5 | CC1=CC(C)(C)Nc2c(C)cc(-c3cccc(C)c3)c(Cl)c21 [Compound 234, 5-Chloro-1,2-dihydro-2,2,4,8-tetramethyl-6-(3-methylphenyl)quinoline] | 85 nM
6 | CCC(=O)c1cccc(-c2cc(C)c3c(c2Cl)C(C)=CC(C)(C)N3)c1 [Compound 238, 5-Chloro-1,2-dihydro-2,2,4,8-tetramethyl-6-[3-(propionyl)phenyl]quinoline] | 18 nM
7 | CC1=CC(C)(C)Nc2ccc(-c3cccc(C(N)=O)c3)c(Cl)c21 [Compound 239, 6-(3-Carbamoylphenyl)-5-chloro-1,2-dihydro-2,2,4-trimethylquinoline] | 22 nM

— patent US20070254917A1, “INTRACELLULAR RECEPTOR MODULATOR COMPOUNDS AND METHODS” (priority 2004, published 2007)
